Experimental data as given in US7776873B2, “Method for treating damage to gastric mucosa” (Yuhan Corporation, priority 2005, dated 2010).

Key:
[1] = test system: interleukin-8 (IL-8); assay: Expression level of IL-8 in sulindac-treated cells (RT-PCR); type: cell-based, rat; conditions: RGM-1 cells, revaprazan 25 uM (rebamipide 50 uM) 16 hours, then sulindac 100 uM 8 hours, FIG. 6
Protocol: In order to evaluate cytoprotective effect of revaprazan, 100 μM of sulindac belonging to NSAIDs was added to the rat cells, and the expression levels of pro-angiogenic growth factors, VEGF (Vascular Endothelial Growth Factor), interleukin-8 (IL-8), and COX-2 (cyclooxygenase-2) were measured. Rebamipide (50 μM), known to have cytoprotective properties, was used as a control drug and revaprazan (25 μM) was used as a test drug. The rat gastric mucosal (RGM-1, RIKEN cell bank, Japan) cells were seeded in culture dishes at 2×10^6 cells/100 mm^2 and cultured in RPMI 1640 (Gibco BRL, Grand Island, N.Y., U.S.A.), supplemented with 100 units/mL penicillin, 100 ug/mL streptomycin, and 10% FBS (Fetal Bovine Serum). […] The culture media were removed and the cells were washed three times with PBS (137 mM NaCl, 2.7 mM KCl, 10 mM Na2HPO4, and 2 mM KH2PO4). A solution of sulindac in DMSO was added to the cells to reach a final concentration of 100 uM and the cells were cultured at 37° C. for 8 hours. The cultured cells were collected by centrifugation at 23° C. at 3000 rpm for 3 minutes, and the total RNA was isolated from the cells using the TRIzol reagent (Life technologies, Milan, Italy). Sterilized RNase-free water was added to 2 μg of the total RNA and 1 μl of 10 pmol/λ oligo dT to obtain reaction solutions with a volume of 34 μl. […]

[2] = test system: rat gastric mucosal (RGM-1) cells; assay: Incidence of ethanol-induced cell death (MTT assay-2); type: cell-based; conditions: FIG. 2
Protocol: The rat gastric mucosal (RGM-1, RIKEN cell bank, Japan) cells were seeded onto 96-well plate at 5×10^4 cells/ml and cultured in DMEM-F12 (Gibco BRL, Grand Island, N.Y., U.S.A.), supplemented with 100 units/mL penicillin, 100 ug/mL streptomycin, and 10% FBS (Fetal Bovine Serum). […] To remove DMEM-F12 media, the plate was centrifuged at 24° C., 3000 rpm for 5 minutes and washed three times with PBS (137 mM NaCl, 2.7 mM KCl, 10 mM Na2HPO4, and 2 mM KH2PO4). Then, ethanol-containing media (200 mM ethanol-containing DMEM-F12, supplemented with 100 units/mL penicillin, 100 ug/mL streptomycin, and 10% FBS) was added to the cells, and the cells were cultured at 37° C. for 16 hours. After the incubation, the culture was centrifuged at 24° C., 3000 rpm for 5 minutes to remove the culture medium and then total viable cell numbers were assessed by MTT (3-[4,5-dimethylthiazol-2-yl]-2,5-diphenyl tetrazolim bromide) assay method. 1 mg/ml of an MTT solution prepared by dissolving MTT (Amresco, Ohio, U.S.A.) in PBS (137 mM NaCl, 2.7 mM KCl, 10 mM Na2HPO4, and 2 mM KH2PO4) was added to each well (50 μl/well), followed by incubation at 37° C. for 4 hours. The supernatant was then removed by centrifugation at 24° C., 3000 rpm for 5 minutes and the formazan grains formed by the viable cells were dissolved in 99.5% dimethylsulfoxide (DMSO) (Kanto, Tokyo, Japan) (50 μl/well), and the optical intensity was measured at 540 nm using an ELISA reader (TECAN, Maennedorf, Switzerland).

[3] = test system: ERK (extracellular signal-regulated kinase); assay: H. pylori-induced ERK activation (Western blot for p-ERK); type: cell-based, human; conditions: AGS cells, 5 and 25 uM for 16 hours, then H. pylori 30 minutes, FIG. 4
Protocol: H. pylori-induced cytotoxicity activates MAPK (Mitogen-Activated Protein Kinase), thereby resulting in apoptosis. Therefore, H. pylori infection leads to an increase in phosphorylation of ERK among three major subfamilies of MAPKs.
The human gastric epithelial (AGS, KCLB 21739) cells were seeded in culture dishes at 2×10^6 cells/100 mm^2 and cultured in RPMI 1640 (Gibco BRL, Grand Island, N.Y., U.S.A.), supplemented with 100 units/mL penicillin, 100 ug/mL streptomycin, and 10% FBS (Fetal Bovine Serum). Revaprazan, dissolved in sterilized water, were added to AGS cells to reach final concentrations of 5 and 25 uM and the cells were incubated at 37° C. for 16 hours. RPMI 1640 media was removed and then the cells washed three times with PBS (137 mM NaCl, 2.7 mM KCl, 10 mM Na2HPO4, and 2 mM KH2PO4). For inoculation, H. pylori (ATCC 43504) cultures were resuspended in PBS and cocultured with AGS cells at a final concentration of 5×10^8 CFU/ml. After 30 minutes of incubation at 37° C., the cells were resuspended in lysis buffer (20 mM Tris-Cl (pH 7.5), 150 mM NaCl, 1% Triton X-100, 1 mM EDTA, and protease inhibitor cocktail (Roche, Mannheim, Germany)). The suspension was sonicated for approximately 10 seconds, four times using the BIORUPTOR (Cosmo Bio, Koto-ku, Tokyo), and centrifuged at 4° C., 12000 rpm for 30 minutes. […]

Cc1nc(Nc2ccc(F)cc2)nc(N2CCc3ccccc3C2C)c1C (stereo not shown) [revaprazan, 5,6-dimethyl-2-(4-fluorophenylamino)-4-(1-methyl-1,2,3,4-tetrahydroisoquinolin-2-yl)pyrimidine]
expression level of IL-8 versus rebamipide-sulindac treatment group [1]: much higher
cytoprotective effect against ethanol-induced cytotoxicity compared with rebamipide ([2]; 50 uM each): equal to or greater than rebamipide
ethanol-induced gastric mucosal cytotoxicity ([2]; 50 uM pretreatment for 16 hours, then 200 mM ethanol for 16 hours): significantly reduced
effect on ERK activation (p-ERK) [3]: significant, concentration-dependent inhibitory effect
